According to ChEMBL document CHEMBL1123847, “Synthesis and structure-activity relationship of 1-aryl-6,8-difluoroquinolone antibacterial agents” (1987):
≈ marks a conversion by molar mass, not a printed value.

What was measured:
Format in all cases: functional
[1] = tested on: Staphylococcus aureus; assay: In vitro antibacterial activity against Staphylococcus aureus CMX 686B
[2] = tested on: Enterococcus faecium; assay: In vitro antibacterial activity against Streptococcus faecium ATCC 8043
[3] = tested on: Escherichia coli; assay: […] against Escherichia coli Juhl (100 X LD50) (s.c. administration); Range is between(0.2-0.5); details: sc
[4] = tested on: Escherichia coli; assay: In vitro antibacterial activity against Escherichia coli Juhl
[5] = tested on: Klebsiella aerogenes; assay: In vitro antibacterial activity against Enterobacter aerogenes ATCC 13048
[6] = tested on: Acinetobacter; assay: In vitro antibacterial activity against Acinetobacter CMX 669
[7] = tested on: Staphylococcus aureus; assay: In vitro antibacterial activity against Staphylococcus aureus ATCC 6538P
[8] = tested on: Pseudomonas aeruginosa; assay: In vitro antibacterial activity against Pseudomonas aeruginosa 5007
[9] = tested on: Klebsiella pneumoniae; assay: In vitro antibacterial activity against Klebsiella pneumoniae 8045
[10] = tested on: Pseudomonas aeruginosa; assay: FIn vitro antibacterial activity against Pseudomonas aeruginosa K799/WT
[11] = tested on: Staphylococcus epidermidis; assay: In vitro antibacterial activity against Staphylococcus epidermis 3519
[12] = tested on: Streptococcus pyogenes; assay: In vitro antibacterial activity against Streptococcus pyogenes 930
[13] = tested on: Pseudomonas aeruginosa; assay: In vitro antibacterial activity against Pseudomonas aeruginosa K799/WT
[14] = tested on: Escherichia coli; assay: […] against Escherichia coli Juhl (100 X LD50) (s.c. administration); Range is between(1.0-1.8)
[15] = tested on: Escherichia coli; assay: Compound was evaluated in vivo for antibacterial activity against Escherichia coli Juhl (100 X LD50)
[16] = tested on: Pseudomonas aeruginosa; assay: […] against Pseudomonas aeruginosa 5007 (100 X LD50) (peroral administration); Range is between (15.8-[…]); details: po
[17] = tested on: Pseudomonas aeruginosa; assay: […] against Pseudomonas aeruginosa 5007 (100 X LD50) (subcutaneous administration); Range is between (4.9-8.1); details: sc
[18] = tested on: Staphylococcus aureus; assay: Compound was evaluated in vivo for antibacterial activity against Staphylococcus aureus NCTC 10649 (100 X LD50) (s.c. administration); Range is between (1.0-2.5); details: sc
[19] = tested on: Escherichia coli; assay: […] against Escherichia coli Juhl (100 X LD50) (s.c. administration); Range is between (0.6-1.5); details: sc
[20] = tested on: Staphylococcus aureus; assay: In vitro mouse protection test against Staphylococcus aureus NCTC 10649 (100 X LD50) (s.c. administration); Range is between (1.0-2.5); details: sc
[21] = tested on: Escherichia coli; assay: Compound was evaluated in vivo for antibacterial activity against Escherichia coli Juhl (100 X LD50) (p.o. administration); Range is between (2.0-5.0); details: po
[22] = tested on: Pseudomonas aeruginosa; assay: Compound was evaluated in vivo for antibacterial activity against Pseudomonas aeruginosa 5007 (100 X LD50) (s.c. administration); Range is between (4.9-8.1); details: sc
[23] = tested on: Pseudomonas aeruginosa; assay: Compound was evaluated in vivo for antibacterial activity against Pseudomonas aeruginosa 5007 (100 X LD50) (p.o. administration); Range is between (15.8-39.6).; details: po
[24] = tested on: Escherichia coli; assay: Compound was evaluated in vivo for antibacterial activity against Escherichia coli Juhl (100 X LD50) (s.c. administration); range is between (0.6-2.5); details: sc
[25] = tested on: Escherichia coli; assay: […] against Escherichia coli Juhl (100 X LD50); Range is between (2.0-5.0)
[26] = tested on: Staphylococcus aureus; assay: In vitro mouse protection test against Staphylococcus aureus NCTC 10649 (100 X LD50),(peroral administration); Range is between (7.9-19-7); details: po
[27] = tested on: Staphylococcus aureus; assay: Compound was evaluated in vivo for antibacterial activity against Staphylococcus aureus NCTC 10649 (100 X LD50) (p.o. administration); Range is between (7.9-19-7).; details: po
[28] = tested on: Escherichia coli; assay: […] against Escherichia coli Juhl (100 X LD50) (p.o. administration );Range is between (2.2-7.0)
[29] = tested on: Escherichia coli; assay: […] against Escherichia coli Juhl (100 X LD50) (s.c. administration );Range is between (1.6-3.9)
[30] = tested on: Staphylococcus aureus; assay: In vitro mouse protection test against Staphylococcus aureus NCTC 10649 (100 X LD50) (s.c. administration );Range is between (2.6-5.4).; details: sc
[31] = tested on: Staphylococcus aureus; assay: […] against Staphylococcus aureus NCTC 10649 (100 X LD50),(peroral administration); Range is between (3.7-10.2).; details: po
[32] = tested on: Pseudomonas aeruginosa; assay: […] against Pseudomonas aeruginosa 5007 (100 X LD50) (subcutaneous administration );Range is between (6.6-16.2)
[33] = tested on: Pseudomonas aeruginosa; assay: […] against Pseudomonas aeruginosa 5007 (100 X LD50) (peroral administration );Range is between (17.7-44.1)

Structure (SMILES) | MIC [1] | MIC [2] | MIC [4] | MIC [5] | MIC [6] | MIC [7] | MIC [8] | MIC [9] | MIC [11] | MIC [12] | MIC [13] | also measured
O=C(O)c1cn(-c2ccc(F)cc2F)c2c(F)c(N3CCNCC3)c(F)cc2c1=O | 0.39 µg/mL (≈ 0.926 µM) | 1.56 µg/mL (≈ 3.7 µM) | 0.05 µg/mL (≈ 0.119 µM) | 0.2 µg/mL (≈ 0.475 µM) | 0.39 µg/mL (≈ 0.926 µM) | 0.39 µg/mL (≈ 0.926 µM) | 0.78 µg/mL (≈ 1.85 µM) | 0.05 µg/mL (≈ 0.119 µM) | 0.78 µg/mL (≈ 1.85 µM) | 1.56 µg/mL (≈ 3.7 µM) | – | ED50 [3]: 0.3 mg/kg; MIC [10]: 0.78 µg/mL (≈ 1.85 µM)
NC1CCN(c2c(F)cc3c(=O)c(C(=O)O)cn(-c4ccc(F)cc4F)c3c2F)C1 (stereo unspecified) | 0.2 µg/mL (≈ 0.475 µM) | 1.56 µg/mL (≈ 3.7 µM) | 0.1 µg/mL (≈ 0.237 µM) | 0.2 µg/mL (≈ 0.475 µM) | 0.39 µg/mL (≈ 0.926 µM) | 0.2 µg/mL (≈ 0.475 µM) | 1.56 µg/mL (≈ 3.7 µM) | 0.1 µg/mL (≈ 0.237 µM) | 0.39 µg/mL (≈ 0.926 µM) | 0.78 µg/mL (≈ 1.85 µM) | 0.78 µg/mL (≈ 1.85 µM) | –
CN1CCN(c2c(F)cc3c(=O)c(C(=O)O)cn(-c4ccc(F)cc4)c3c2F)CC1 | 0.39 µg/mL (≈ 0.934 µM) | 3.1 µg/mL (≈ 7.43 µM) | 0.39 µg/mL (≈ 0.934 µM) | 0.78 µg/mL (≈ 1.87 µM) | 0.39 µg/mL (≈ 0.934 µM) | 0.39 µg/mL (≈ 0.934 µM) | 3.1 µg/mL (≈ 7.43 µM) | 0.39 µg/mL (≈ 0.934 µM) | 0.78 µg/mL (≈ 1.87 µM) | 3.1 µg/mL (≈ 7.43 µM) | 3.1 µg/mL (≈ 7.43 µM) | ED50 mg/kg [14]: 1.3
O=C(O)c1cn(-c2ccc(F)cc2)c2c(F)c(N3CCNCC3)c(F)cc2c1=O | 0.39 µg/mL (≈ 0.967 µM) | 6.2 µg/mL (≈ 15.4 µM) | 0.1 µg/mL (≈ 0.248 µM) | 0.1 µg/mL (≈ 0.248 µM) | 0.39 µg/mL (≈ 0.967 µM) | 0.39 µg/mL (≈ 0.967 µM) | 0.78 µg/mL (≈ 1.93 µM) | 0.05 µg/mL (≈ 0.124 µM) | 0.78 µg/mL (≈ 1.93 µM) | 1.56 µg/mL (≈ 3.87 µM) | 0.39 µg/mL (≈ 0.967 µM) | MIC [15]: 0.1 µg/mL (≈ 0.248 µM); ED50 [16]: 25 mg/kg; ED50 [17]: 6.3 mg/kg; ED50 [18]: 1.6 mg/kg; ED50 [19]: 1 mg/kg; ED50 [20]: 1.6 mg/kg; ED50 [21]: 3.2 mg/kg; ED50 [22]: 6.3 mg/kg; ED50 [23]: 25 mg/kg; ED50 [24]: 1 mg/kg; ED50 [25]: 3.2 mg/kg; ED50 [26]: 12.5 mg/kg; ED50 [27]: 12.5 mg/kg
CN1CCN(c2c(F)cc3c(=O)c(C(=O)O)cn(-c4ccc(F)cc4F)c3c2F)CC1 | 0.39 µg/mL (≈ 0.896 µM) | 6.2 µg/mL (≈ 14.2 µM) | 0.39 µg/mL (≈ 0.896 µM) | 0.39 µg/mL (≈ 0.896 µM) | 0.39 µg/mL (≈ 0.896 µM) | 0.39 µg/mL (≈ 0.896 µM) | 3.1 µg/mL (≈ 7.12 µM) | 0.2 µg/mL (≈ 0.459 µM) | 0.78 µg/mL (≈ 1.79 µM) | 3.1 µg/mL (≈ 7.12 µM) | 1.56 µg/mL (≈ 3.58 µM) | ED50 mg/kg [28]: 3.9; ED50 mg/kg [29]: 2.5; ED50 [30]: 3.7 mg/kg; ED50 [31]: 6.1 mg/kg; ED50 mg/kg [32]: 10.3; ED50 mg/kg [33]: 27.9
